Non-standard residues stand in square brackets, D forms with d. Residues, ends and D or L forms follow the SMILES beside them. *: point of attachment. Dnp = O=[N+]([O-])c1ccc(*)c([N+](=O)[O-])c1
Assays:
non-specific peptidases = assay: Rate of hydrolysis of DNP-peptide derivatives by non-specific peptidases (Example 15); type: biochemical, human; details: 5×10^-4 M peptide, 37° C., pH 7.5; average of three experiments; extraction with ethyl acetate (* compounds: ethyl acetate-n-butanol 1:0.15)
Experimental: (§1) Purified collagenase used in Examples was prepared from cultured media of tadpole skin explants as described in Biochem. Biophs. Acta, 263 564(1972), and non-specific peptidases were prepared by subjecting 5 ml of fresh adult human serum to chromatography on a calibrated Sephadex G-200 superfine gel column equilibrated with 0.05 M Tris-HCl buffer, pH 7.5, containing 0.15 M NaCl and 5 mM CaCl2, and gathering the effluent fractions corresponding to molecular weights of 100,000-180,000.
(§2) Various DNP-peptide derivatives were dissolved in 0.05 M Tris-HCl buffer, pH 7.5, containing 0.15 M NaCl, 5 mM CaCl2 and 0.02% bovine serum albumin to make a concentration of 5×10^-4 M. 0.1 ml Each of the peptide derivative solutions was mixed with an equal volume of purified collagenase (6.2 U/ml) or non-specific peptidases and incubated for various periods at 37° C. After stopping the enzyme reaction by adding 0.5 ml of 1 M HCl, the DNP-peptide fragments released were extracted by vigorous shaking with 1 ml of ethylacetate or ethyl acetate-n-butanol (1:0.15, V/V), and worked up as in Example 12.

purified collagenase [1] = assay: Rate of hydrolysis of DNP-peptide derivatives by purified collagenase (Example 15); type: biochemical, tadpole; details: 5×10^-4 M peptide, purified collagenase 6.2 U/ml, 37° C., pH 7.5; average of three experiments; extraction with ethyl acetate (* compounds: ethyl acetate-n-butanol 1:0.15)
Experimental: as §1, §2

purified collagenase [2] = assay: Time course of hydrolysis of substrate solutions by purified collagenase (Example 12); type: biochemical, tadpole; details: for 00365 (absorbance of the organic layer at 365 nm): pH 7.5
Experimental: as §1
DNP-Pro-Gln-Gly-Ile-Ala-Gly-Gln-D-Arg-OH.CH3 COOH.H2 O (4.96 mg) was neutralized with 0.1N sodium hydroxide, and dissolved in 0.05M tris-HCl buffer, pH 7.5, containing 0.15 M NaCl and 5 m MCaCl2 to make 10 ml of the substrate solution (a) having a concentration of 5×10^-4 M. The substrate solution (b) was also prepared similarly by using DNP-Gln-Gly-Ile-Ala-Gly-Gln-D-Arg-OH.CH3 COOH.H2 O (4.48 mg).
0.9 ml Each of the substrate solutions was diluted with 0.88 ml of 0.05M tris-HCl buffer, pH 7.5, containing 0.15 M NaCl, and 5 m MCaCl2. The resulting solution was mixed with 0.02 ml of purified collagenase, and incubated. 0.2 ml Aliquots of the reaction mixture were taken out at 0, 10, 20, 40, 60 and 120 minutes, and mixed with 0.5 ml of 1M hydrochloric acid for stopping the enzyme reaction.
(§3) The DNP-peptide fragments released were extracted by vigorous shaking with 1 ml of ethyl acetate-n-butanol (1:0.15, V/V) followed by centrifugation at 3,000-5,000 rpm and room temperature for 10 minutes to separate two layers completely. The degree of hydrolysis was determined by measuring the absorbance of the organic layer at 365 nm.

[3] = test system: collagenase in synovial fluids; assay: Hydrolysis of substrate solutions by synovial fluids from patients; collagenase activity (Example 14); type: biochemical, human; details: for OD365/0.1 ml ohr: 0 hr; for OD365/0.1 ml 2hr: 2 hr at 37° C.; for OD365/0.1 ml increment: 2 hr minus 0 hr
Experimental: as §3
0.2 ml Each of the substrate (solutions(a) and (b) prepared in Example 12 was mixed with 0.1 ml of synovial fluids from patients with osteoarthritis and rheumatoid arthritis, and incubated for 2 hours at 37° C. After stopping the enzyme reaction by adding 0.5 ml of 1 M hydrochloric acid, the DNP-peptide fragments released were extracted by vigorous shaking with 2 ml of ethyl acetate-n-butanol (1:0.15, V/V), and worked up as in Example 12 to obtain the collagenase activities.

[4] = synovial fluid of case five, RA
[5] = synovial fluid of case four, OA
[6] = synovial fluid of case three, RA

**Q.** Which “Rate of hydrolysis by non-specific peptidases” value (non-specific peptidases) does the source give for `CC[C@H](C)[C@H](NC(=O)CNC(=O)[C@H](CCC(N)=O)NC(=O)[C@@H]1CCCN1c1ccc([N+](=O)[O-])cc1[N+](=O)[O-])C(=O)N[C@@H](C)C(=O)NCC(=O)N[C@H](CCCNC(=N)N)C(=O)O` [Example 8, DNP-Pro-Gln-Gly-Ile-Ala-Gly-D-Arg-OH] (Dnp-PQGIAG[dR]-OH) here?
**A.** The value was 0.021 OD365/hr.

**Q.** What about the “Rate of hydrolysis by Collagenase” value (purified collagenase [1]) of the same compound?
**A.** Its value is 0.157 OD365/hr.

**Q.** Which “Rate of hydrolysis by non-specific peptidases” value (non-specific peptidases) does the source give for `CC[C@H](C)[C@H](NC(=O)CNC(=O)[C@H](CC(C)C)NC(=O)[C@@H]1CCCN1c1ccc([N+](=O)[O-])cc1[N+](=O)[O-])C(=O)N[C@@H](C)C(=O)NCC(=O)N[C@@H](CCC(N)=O)C(=O)N[C@H](CCCNC(=N)N)C(=O)O` [Example 9, DNP-Pro-Leu-Gly-Ile-Ala-Gly-Gln-D-Arg-OH] (Dnp-PLGIAGQ[dR]-OH) here?
**A.** Its value is 0 OD365/hr.

**Q.** And the “Rate of hydrolysis by Collagenase” value (purified collagenase [1])?
**A.** Its value is 0.276 OD365/hr.

**Q.** How did the “Rate of hydrolysis by non-specific peptidases” value (non-specific peptidases) turn out when `CC[C@H](C)[C@H](NC(=O)CNC(=O)[C@H](CCC(N)=O)Nc1ccc([N+](=O)[O-])cc1[N+](=O)[O-])C(=O)N[C@@H](C)C(=O)NCC(=O)N[C@@H](CCC(N)=O)C(=O)N[C@H](CCCNC(=N)N)C(=O)O` [Example 10, DNP-Gln-Gly-Ile-Ala-Gly-Gln-D-Arg-OH] was run?
**A.** Its value is 0 OD365/hr.

**Q.** What about the “00365 (absorbance of the organic layer at 365 nm)” value (purified collagenase [2]; incubation time 0 min) of the same compound?
**A.** Its value is 0.027.

**Q.** What about the “increment of 00365” value (purified collagenase [2]; incubation time 10 min) of the same compound?
**A.** Its value is 0.

**Q.** What about the “00365 (absorbance of the organic layer at 365 nm)” value (purified collagenase [2]; incubation time 10 min) of the same compound?
**A.** The value was 0.027.

**Q.** What about the “increment of 00365” value (purified collagenase [2]; incubation time 20 min) of the same compound?
**A.** Its value is 0.

**Q.** And the “00365 (absorbance of the organic layer at 365 nm)” value (purified collagenase [2]; incubation time 20 min)?
**A.** The value was 0.027.

**Q.** And the “increment of 00365” value (purified collagenase [2]; incubation time 40 min)?
**A.** The value was 0.002.

**Q.** What about the “00365 (absorbance of the organic layer at 365 nm)” value (purified collagenase [2]; incubation time 40 min) of the same compound?
**A.** The value was 0.030.

**Q.** What about the “increment of 00365” value (purified collagenase [2]; incubation time 60 min) of the same compound?
**A.** The value was 0.002.

**Q.** What about the “00365 (absorbance of the organic layer at 365 nm)” value (purified collagenase [2]; incubation time 60 min) of the same compound?
**A.** The value was 0.029.

**Q.** And the “increment of 00365” value (purified collagenase [2]; incubation time 120 min)?
**A.** Its value is 0.

**Q.** And the “00365 (absorbance of the organic layer at 365 nm)” value (purified collagenase [2]; incubation time 120 min)?
**A.** Its value is 0.027.

**Q.** What about the “Rate of hydrolysis by Collagenase” value (purified collagenase [1]) of the same compound?
**A.** Its value is 0 OD365/hr.

**Q.** And the OD365/0.1 ml ohr [3, 4]?
**A.** The OD365/0.1 ml ohr was 0.045 OD365/0.1 ml.

**Q.** And the “OD365/0.1 ml 2hr” value [3, 4]?
**A.** The value was 0.045 OD365/0.1 ml.

**Q.** And the OD365/0.1 ml increment [3, 4]?
**A.** Its OD365/0.1 ml increment is 0.000 OD365/0.1 ml.

**Q.** What about the OD365/0.1 ml ohr [3, 5] of the same compound?
**A.** The OD365/0.1 ml ohr was 0.038 OD365/0.1 ml.

**Q.** And the “OD365/0.1 ml 2hr” value [3, 5]?
**A.** Its value is 0.040 OD365/0.1 ml.

**Q.** What about the OD365/0.1 ml increment [3, 5] of the same compound?
**A.** Its OD365/0.1 ml increment is 0.002 OD365/0.1 ml.

**Q.** And the OD365/0.1 ml ohr ([3]; synovial fluid of case one, RA)?
**A.** The OD365/0.1 ml ohr was 0.049 OD365/0.1 ml.

**Q.** What about the “OD365/0.1 ml 2hr” value ([3]; synovial fluid of case one, RA) of the same compound?
**A.** The value was 0.046 OD365/0.1 ml.

**Q.** And the OD365/0.1 ml increment ([3]; synovial fluid of case one, RA)?
**A.** Its OD365/0.1 ml increment is 0 OD365/0.1 ml.

**Q.** What about the OD365/0.1 ml ohr ([3]; synovial fluid of case six, OA) of the same compound?
**A.** The OD365/0.1 ml ohr was 0.050 OD365/0.1 ml.

**Q.** What about the “OD365/0.1 ml 2hr” value ([3]; synovial fluid of case six, OA) of the same compound?
**A.** The value was 0.041 OD365/0.1 ml.

**Q.** What about the OD365/0.1 ml increment ([3]; synovial fluid of case six, OA) of the same compound?
**A.** The OD365/0.1 ml increment was 0 OD365/0.1 ml.

**Q.** And the OD365/0.1 ml ohr [3, 6]?
**A.** The OD365/0.1 ml ohr was 0.050 OD365/0.1 ml.

**Q.** What about the “OD365/0.1 ml 2hr” value [3, 6] of the same compound?
**A.** Its value is 0.051 OD365/0.1 ml.

**Q.** And the OD365/0.1 ml increment [3, 6]?
**A.** The OD365/0.1 ml increment was 0.001 OD365/0.1 ml.

**Q.** What about the OD365/0.1 ml ohr ([3]; synovial fluid of case two, OA) of the same compound?
**A.** Its OD365/0.1 ml ohr is 0.035 OD365/0.1 ml.

**Q.** What about the “OD365/0.1 ml 2hr” value ([3]; synovial fluid of case two, OA) of the same compound?
**A.** The value was 0.038 OD365/0.1 ml.

**Q.** And the OD365/0.1 ml increment ([3]; synovial fluid of case two, OA)?
**A.** Its OD365/0.1 ml increment is 0.003 OD365/0.1 ml.

**Q.** With `CC[C@H](C)[C@H](NC(=O)CNC(=O)[C@H](C)Nc1ccc([N+](=O)[O-])cc1[N+](=O)[O-])C(=O)N[C@@H](C)C(=O)NCC(=O)N[C@@H](CCC(N)=O)C(=O)N[C@H](CCCNC(=N)N)C(=O)O` [Example 11, DNP-Ala-Gly-Ile-Ala-Gly-Gln-D-Arg-OH] as the compound, how does the “Rate of hydrolysis by non-specific peptidases” value (non-specific peptidases) read?
**A.** The value was 0.016 OD365/hr.

**Q.** What about the “Rate of hydrolysis by Collagenase” value (purified collagenase [1]) of the same compound?
**A.** Its value is 0 OD365/hr.

Reference: patent publication US4176009A, “Method of measuring collagenase activity” (Ajinomoto Co., Inc., priority 1976, dated 1979)
